One block for each molecule: values may come before it.
Legend:
human THP-1 cells = assay: ApoA1 cholesterol efflux screen in THP-1 cells; format: cell-based; settings: 50 μM; THP-1 cells incubated with ApoA1
Procedure: Human THP-1 cells were incubated with ApoA1 in the presence of linoleic acid or several different fatty acid derivatives (50 μM) in a blinded manner, and resulting cholesterol efflux was measured (FIG. 9) as previously described (PMID: 26879139).

[1] = Incubation under esterification conditions (glycerol on silica gel, 3 days), LC-MS; format: physicochemical; settings: for esterification with glycerol: free acid in ether with glycerol-coated silica gel, 3 days; for internal lactonization: under the esterification conditions
Procedure: • A: 10 mM NH4OAc, pH 7.4 • B: Acetonitrile+0.1% formic acid • 0-1.50 min: 5% B • 1.50-2 min: 5-90% B • 2-10 min: 90% B • 10.01-15 min: 5% B • DAD1 254 nm • DAD2 215 nm • Agilent Zorbax XDB-C18 5 μm C18 50×2.0 mm • 0.4 ml/min MS Parameters: Agilent 6120 with Electrospray Ionization • Drying gas flow: 11.0 L/min • Nebulizer pressure: 40 psig • Drying gas temperature: 350 C • Positive capillary voltage: 4000 V • Negative capillary voltage: 3000 V
Approximately 30 mg of silica gel was added to 25 mg of glycerol, and it was then vortexed to coat all of the silica with glycerol, until the admixture was free-flowing. Between 5-10 mg of this material was added to a solution of the free acid in ether, and it was vortexed briefly. The reaction was left for 3 days, then filtered and evaporated under nitrogen. The residue was redissolved in ethanol and analyzed by LC-MS, in both positive and negative modes.

[2] = tested on: adult rat dorsal root ganglia (DRG) neurons; assay: Ex vivo CGRP release assay in adult rat sensory neuronal cultures; format: cell-based; settings: 1 μM; for capsaicin-evoked CGRP release: 30 nM capsaicin; for low-pH-evoked CGRP release: buffer pH adjusted to 6.0
Procedure: For release experiments, the work was approved by the Animal Care and Use Committee at Indiana University School of Medicine, Indianapolis, IN. Adult rat sensory neuronal cultures were prepared as previously described (Burkey, Hingtgen, and Vasko, Methods in molecular medicine 99, 189, 2004; Kelley et al., PloS one 9, e106485, 2014). Cells were maintained for 10-12 days in F-12 media (Invitrogen, Carlsbad, CA) supplemented with 10% horse serum, 2 mM glutamine, 100 μg/ml normocin™, 50 μg/ml penicillin, 50 μg/ml streptomycin, 50 μM 5-fluoro-2′-deoxyuridine (Invitrogen), 150 μM uridine, and 30 ng/ml of NGF (Harlan Bioproducts for Science, Inc. Indianapolis, IN) in 3% CO2 at 37° C. On the day of the release experiments, cultures were washed with HEPES buffer (25 mM HEPES, 135 mM NaCl, 3.5 mM KCl, 2.5 mM CaCl2, 1 mM MgCl2, 3.3 mM D-glucose, and 0.1% bovine serum albumin, pH 7.4 and maintained at 37° C. Cultures were then incubated with 0.4 ml of the same buffer in the absence or presence of drugs. Basal release was determined by exposing the cells to HEPES buffer alone for 10 min, then to buffer in the presence of mediators for 10 min to ascertain if the compounds stimulated release. Cultures were then exposed to buffer containing 30 nM capsaicin or buffer with the pH adjusted to 6.0 in the absence or presence of mediators. Cells then were re-exposed to HEPES buffer without drugs for a 10 min incubation to reestablish basal release. After each incubation, the buffer was removed to measure the amount of CGRP using radioimmunoassay as previously described (Chen et al., Peptides 17, 31, 1996). At the end of each release experiment, cells were hypotonically lysed by exposing the cultures to 0.1 M HCl for 10 min and an aliquot taken to measure total CGRP content in the cultures using radioimmunoassay. […] Release data are presented in fmol/well of cell/10 min from three independent experiments from separate harvests. Statistical analysis was performed using ANOVA with Tukey's post hoc test.

female mice (C57BL/6J) = assay: Pruriceptive (itch) behavior, scratching bouts after intradermal injection into nape of neck; format: in vivo, mouse; settings: for itch-related scratching behavior compared to vehicle: 100 μg (mixture 100 μg of each) intradermal, n=6-8 per group, 30 minutes; for onset of scratching responses (significantly greater than vehicle) / time of maximum scratching response: 9K-12,13E-LA 100 μg, histamine 50 μg; for scratching bouts compared to vehicle, pilot testing: n=3 per group, first 30 minutes after intradermal injection
Procedure: Hydroxy- and keto-epoxide derivatives of LA (100 μg) or histamine (50 μg) were injected intra-dermally into the nape of neck of the female mice (C57BL/6J from Jackson Laboratory). LA derivatives (9-keto-12,13-epoxy-(10E)-octadecenoate or 13-keto-9,10-epoxy-(11E)-octadecenoate) were injected independently, and in combination (9-keto-12,13-epoxy-(10E)-octadecenoate plus 13-keto-9,10-epoxy-(11E)-octadecenoate (100 μg of each)). Pruriceptive behavior was quantified as the number of scratching bouts assessed over 30 minutes, as previously described (Mishra and Hoon, Science 340, 968, 2013).

[3] = tested on: normal mice or a mast cell knock-out mouse; assay: Itch-related scratching in normal and mast cell knock-out mice; format: in vivo; settings: 100 μg intradermal; 30 minutes
Procedure: The fatty acid derivative 9K-12,13E-LA (100 μg) was injected intra-dermally into the nape of neck of normal mice or a mast cell knock-out mouse (FIG. 8) in a blinded manner. Pruriceptive behavior was quantified as the number of scratching bouts assessed over 30 minutes, as previously described (Mishra and Hoon, Science 340, 968, 2013).

[4] = tested on: murine trigeminal sensory neurons; assay: Ca2+ responses in cultured trigeminal sensory neurons; format: cell-based, mouse; settings: FIG. 7B
Procedure: Additionally, murine trigeminal sensory neurons were isolated and cultured in vitro. Fatty acid derivatives were applied to the cultured neurons and any resulting Ca^2+ response was measured in a blinded manner. The assayed compounds include: 11H-12,13E-LA (Compound 1), 11K-12,13E-LA (Compound 2), 11H-9,10E-LA (Compound 3), and 11K-9,10E-LA (Compound 4).

male Sprague-Dawley rats = assay: Nociceptive (pain) behavior after intradermal hindpaw injection; format: in vivo, rat; settings: for decrease of C-fiber withdrawal latencies: after intradermal hindpaw injection (11H-12,13E-LA 30 μg), versus vehicle
Procedure: 11-hydroxy-12,13-trans-epoxy-(9Z)-octadecenoate (30 μg) was injected intradermally into the hindpaw of male Sprague-Dawley rats. Baseline measurements were taken for all tests prior to injection. A-delta and C-fiber mediated hindpaw withdrawal responses were measured as previously described (Mitchell et al., Pain 155, 733, 2014). Briefly, by stimulation of the plantar surface of the paw with a 100 ms laser pulse, producing a rapid withdrawal response. Laser pulses were delivered by an infrared diode laser (LASS-10 M; Lasmed, Mountain View, CA, USA) and calibrated to 3500 mA at 0.5 mm diameter, and delivered from 1 cm distance, C-fiber mediated responses were measured by delivery of a slow temperature ramp to the plantar surface of the hindpaw, with stimulus termination by voluntary withdrawal of the paw. The laser stimulus was adjusted to result in an approximately 10 second withdrawal latency (1000 mA, 13 cm distance).

[5] = tested on: freshly isolated human PBMCs; assay: ApoA1 cholesterol efflux screen in freshly isolated PBMCs; format: cell-based; settings: 50 μM
[6] = tested on: tumor necrosis factor (TNF)-alpha secretion, human PBMCs; assay: PBMC cytokine secretion (ELISA): TNF-alpha; format: cell-based; settings: 100 μM, 24 hours; for LPS-induced TNF-alpha secretion: LPS pre-incubation; for native TNF-alpha secretion: no LPS
Procedure: (§1) Freshly isolated human PBMCs were pre-incubated (FIGS. 11A and 11C) or not (FIGS. 11B and 11D) with LPS, and then incubated with ferulic acid (“FA,” 100 μM) and 11H-12,13E-LA, 11K-12,13E-LA, PBS, or LPS alone for 24 hours (blinded). Then, the medium concentration of TNF-alpha (FIGS. 11A and 11B) or […] (FIGS. 11C and 11D) was measured using enzyme-linked immunosorbent assay.

[7] = tested on: interleukin (IL)-1, human PBMCs; assay: PBMC cytokine secretion (ELISA): IL-1; format: cell-based; settings: 100 μM; with or without LPS; 24 hours
Procedure: as §1

Molecule: 9-hydroxy-octadecadienoic acid [reference compound]
ApoA1-mediated monocyte cholesterol efflux (human THP-1 cells): increased

internal lactonization [1]: did not lactonize
Molecule: CC/C=C\C/C=C\C/C=C\C/C=C\C/C=C\C=C\C(O)CC(C)(C)C(=O)O (centres unmarked) [2,2-dimethyl-4-hydroxy-DHA]
esterification with glycerol [1]: resistant to esterification, including internal lactonization

esterification with glycerol [1]: resistant to esterification
Molecule: CCCCCC(O)/C=C/C1OC1CCCCCCC(C)(C)C(=O)O (stereo not drawn) [2,2-dimethyl-13-hydroxy-9,10-trans-epoxy-(11E)-octadecenoic acid]

Molecule: CC/C=C\C/C=C\C/C=C\C/C=C\C/C=C\C=C\C(O)CC(C)C(=O)O (centres unmarked) [2-methyl-4-hydroxy-DHA]
esterification with glycerol [1]: resistant to glycerol esterification
internal lactonization [1]: competitive lactonization

Molecule: CC/C=C\C/C=C\C/C=C\C/C=C\C/C=C\C=C\C(O)CCC(=O)O (centres unmarked) [4-hydroxy-DHA, reference compound]
internal lactonization [1]: rapidly undergoes internal lactonization

Molecule: CCCCCC1OC1/C=C/C(O)CCCCCCCC(=O)O (stereo not drawn) [9H-12,13E-LA, 9-hydroxy(H)-12,13-trans-epoxy-(E)-octadecenoate]
capsaicin-evoked CGRP release [2]: Neither 9H-12,13E-LA, nor any of the tested keto-epoxy-octadecenoates, augmented
low-pH-evoked CGRP release [2]: Neither 9H-12,13E-LA, nor any of the tested keto-epoxy-octadecenoates, augmented

Molecule: CCCCCC1OC1/C=C/C(=O)CCCCCCCC(=O)O (stereo not drawn) [9K-12,13E-LA, 9-keto(K)-12,13-trans-epoxy-(E)-octadecenoate]
itch-related scratching behavior compared to vehicle (female mice (C57BL/6J)): induced itch-related scratching behavior
onset of scratching responses (significantly greater than vehicle) (female mice (C57BL/6J)): slower onset
time of maximum scratching response (female mice (C57BL/6J)): 10 to 15 min
scratching bouts compared to vehicle, pilot testing (female mice (C57BL/6J)): appeared to increase scratching bouts
scratching responses in mast cell knockout mice [3]: increased scratching responses
scratching responses in wild type mice [3]: increased scratching responses

Molecule: CCCCC/C=C\C(O)C1OC1CCCCCCCC(=O)O (stereo not drawn) [11H-9,10E-LA, 11-hydroxy(H)-9,10-trans-epoxy-(E)-octadecenoate]
capsaicin-evoked CGRP release [2]: significantly augmented
low-pH-evoked CGRP release [2]: significantly augmented
number of trigeminal cells responding, concentration-response [4]: increase in the number of cells responding

Molecule: CCCCCC1OC1C(O)/C=C\CCCCCCCC(=O)O (stereo not drawn) [11H-12,13E-LA, 11-hydroxy(H)-12,13-trans-epoxy-(E)-octadecenoate]
capsaicin-evoked CGRP release [2]: significantly augmented
low-pH-evoked CGRP release [2]: significantly augmented
decrease of C-fiber withdrawal latencies (male Sprague-Dawley rats): 28%
number of trigeminal cells responding, concentration-response [4]: increase in the number of cells responding
ApoA1-mediated monocyte cholesterol efflux (human THP-1 cells): inhibited
ApoA1-mediated monocyte cholesterol efflux [5]: inhibited
LPS-induced TNF-alpha secretion [6]: inhibits
native TNF-alpha secretion [6]: inhibits
IL-1 secretion [7]: has no effect

Molecule: CCCCCC1OC1C(=O)/C=C\CCCCCCCC(=O)O (stereo not drawn) [11K-12,13E-LA, 11-keto(K)-12,13-trans-epoxy-(E)-octadecenoate]
ApoA1-mediated monocyte cholesterol efflux (human THP-1 cells): inhibited
ApoA1-mediated monocyte cholesterol efflux [5]: inhibited
LPS-induced TNF-alpha secretion [6]: inhibits
native TNF-alpha secretion [6]: inhibits
IL-1 secretion [7]: has no effect

Molecule: CCCCCC(O)/C=C/C1OC1CCCCCCCC(=O)O (stereo not drawn) [13H-9,10E-LA, 13-hydroxy(H)-9,10-trans-epoxy-(E)-octadecenoate]
capsaicin-evoked CGRP release [2]: had no effect
low-pH-evoked CGRP release [2]: significantly augmented

Molecule: CCCCCC(=O)/C=C/C1OC1CCCCCCCC(=O)O (stereo not drawn) [13K-9,10E-LA, 13-keto(K)-9,10-trans-epoxy-(E)-octadecenoate]
itch-related scratching behavior compared to vehicle (female mice (C57BL/6J)): no response
scratching bouts compared to vehicle, pilot testing (female mice (C57BL/6J)): appeared to increase scratching bouts

Molecule: CCCCC/C=C\C/C=C\CCCCCCCC(=O)O [Linoleic acid, reference compound]
ApoA1-mediated monocyte cholesterol efflux (human THP-1 cells): increased cholesterol efflux

Molecule: CCCCC[C@H](O)/C=C/[C@H]1[C@H](O)CC(=O)[C@@H]1C/C=C\CCCC(=O)O [PGE2, prostaglandin E2, reference compound]
direct stimulation of CGRP release ([2]; neutral pH): neither PGE2 nor any of the other tested compounds directly stimulated
capsaicin-evoked CGRP release [2]: significantly augmented
low-pH-evoked CGRP release [2]: significantly augmented
proportion of withdrawal responses following Aδ fiber laser stimulation (male Sprague-Dawley rats; after intradermal hindpaw injection): significantly enhanced
decrease of C-fiber withdrawal latencies (male Sprague-Dawley rats): 46%

Molecule: NCCc1c[nH]cn1 [histamine, reference compound]
onset of scratching responses (significantly greater than vehicle) (female mice (C57BL/6J)): ≤ 5 min
time of maximum scratching response (female mice (C57BL/6J)): 5 to 10 min

From patent US12479812B2, “Fatty acid derivatives and their use” (THE UNITED STATES OF AMERICA, as represented by the …, priority 2017, dated 2025)
